From patent publication US9963480B2, “Nucleoside phosphoramidate compound and use thereof” (priority 2013, dated 2018)
pEC50: −log10 of the molar value.

Key:
Type in all cases: cell-based
[1] = tested on: HCV 1b replicon; test: Antiviral activity assay in HCV replicon system (Huh7 1b cells, luciferase reporter); conditions: Hepatitis C virus, Huh-7; Huh7 1b cells with HCV 1b replicon, Bright-Glo luciferase, 72 h; read-out: EC50
Description: The cell line Huh7 1b, which was provided by WuXi AppTec Co., Ltd. in Shanghai, contained an HCV 1b replicon with a stable Luciferase (Luc) reporter. It was constructed by cloning HCV nonstructural protein gene, neo (G418 resistance) and luciferase reporter gene into the pBR vector through gene recombination technology. Then the vector carrying the HCV replicon was transfected into Huh7 cells, and the transfected Huh7 cells were screened by G418 resistance. The HCV replicon was stably replicated, and the related protein and luciferase were stably expressed in Huh7 cells. The cells model was used for in-vitro screen of anti-HCV compounds. The anti-HCV activity of the compounds was measured by detecting the level of luciferase expression. See Lohmann V, et al. 1999. Replication of subgenomic hepatitis C virus RNAs in a hepatoma cell line. Science. 285(5424):110-113.
The control drug used in this experimental example was the compound of Example 25 in WO 2008/121634 (PCT/US2008/058183), i.e. (S)-2-{[(2R,3R,4R,5R)-5-(2,4-dioxo-3,4-dihydro-2H-pyrimidin-1-yl)-4-fluoro-3-hydr oxy-4-methyl-tetrahydro-furan-2-ylmethoxy]-phenoxy-phosphorylamino}-propanoic acid isopropyl ester. This compound was prepared according to the method described in J. Org. chem, 2011, 76, 8311-8319, and identified by H-NMR and mass spectrometry.
• 2.1 compound preparation: adding each of the compounds listed in Table 2 to 96-well plates using a POD™ 810 Automation Platform (LabCyte Corporation, USA), with 10 μM of each of the compounds as a starting concentration and in duplicate; serially diluting each of the compounds in 3-fold fashion and formulating 10 concentrations, with the final concentration of DMSO being 0.5%; • 2.2 cells preparation: seeding the Huh71b cells into 96-well plates respectively with a volume of 125 μl and 8×10^3 cells/well, and incubating in a 37° C., 5% CO2 incubator for 72 h; • 2.3 detection of cell activity: adding 30 μl per cell of the CellTiter-Fluor™ Reagent, incubating in a 37° C., 5% CO2 incubator for 1 h, measuring the fluorescence signal values with a fluorometer, and using the obtained data for calculation of cytotoxicities of the compounds; • 2.4 Bright-Glo detection: adding 100 μl per well of the Bright-Glo™ Luciferase Substrate, using a chemiluminescence detection system EnVision™ (PerkinElmer, USA) to detect the fluorescence signal values within 5 minutes, and using the obtained data for calculation of potencies of the compounds. • 2.5 data processing: converting the obtained data to a percentage of cell viability (Viability %) using the following formula:
[formula] • CPD: fluorescence signal value of the well added with the compound • ZPE (Zero percent effect): fluorescence signal value of the control well with zero percent effect. • Processing the raw data to calculate a percentage of inhibition (Inhibition %) using the following formula:
[formula] • CPD: fluorescence signal value of the well added with the compound; • HPE (Hundred percent effect): fluorescence signal value of the control well with hundred percent effect; • ZPE (Zero percent effect): fluorescence signal value of the control well with zero percent effect.
The inhibition percentage was processed by the GraphPad Prism software to obtain the corresponding curves and EC50 values.

[2] = tested on: J399EM (HCV genotype 2a) virus; test: Antiviral activity assay in the cell-culture-derived infectious HCV (HCVcc) system; conditions: for half maximal effective concentration (EC50) against the HCVcc GT2a viruses, in words: in vitro HCVcc system
Description: The compound according to the above example 1 was used in this experiment. The compound was formulated into a 10 mM mother liquid with DMSO, diluted to 500 nM by DMEM complete culture medium containing 0.5% of DMSO, followed by 4-fold dilution successively, and six concentrations were obtained. The positive control was diluted to 10 μM by DMEM complete culture medium containing 0.5% of DMSO, followed by 4-fold successively, and six concentrations were obtained.
(§1) Huh 7.5.1 cells, provided by Shanghai Institute of Materia Medica, Chinese Academy of Sciences.
J399EM (HCV genotype 2a) virus, i.e. a full length HCV mutant strain transfected with EGFP (enhanced green fluorescent protein) was used, which had the same infection capacity as the wild type JFH-1. The NS5A-EGFP fusion protein fluorescence was observed directly in infected cells by inserting EGFP coding sequence in the NS5A region. J399EM was provided by Shanghai Institute of Materia Medica, Chinese Academy of Sciences.
(§2) • 1) Huh 7.5.1 cells preparation: collecting the Huh7.5.1 cells in logarithmic phase, resuspending in DMEM complete culture medium, seeding into 96-well plates (7×10^3 cells/well), and incubating in a 37° C., 5% CO2 incubator for 24 h; • 2) virus infection: resuspending J399EM viruses in DMEM complete culture medium, adding the virus supernatant (MOI≈0.1) to the above 96-well plates, and washing with PBS after 8 hours of infection; • 3) drug treatment: adding various concentrations of the compounds to the Huh7.5.1 cells infected by J399EM viruses, with each concentration in duplicate; setting the control group with zero percent effect (ZPE) and the control group with hundred percent effect (HPE); replacing the compound with the DMEM complete culture medium containing 0.5% DMSO in ZPE group, and using the cells not infected with viruses in HPE group. • 4) cells incubation: incubating the 96-well plates in a 37° C., 5% CO2 incubator for 72 hr; • 5) anti-HCV activity detection: reading the relative fluorescence units (RFU) of each well by EnVision® Multi label Plate readers after incubation, and calculating the anti-HCV activity of the compounds using the obtained data according to the following formula: Inhibition %=(RFUZPE−RFUCPD)/(RFUZPE−RFUHPE)×100 • wherein RFUZPE represents the relative fluorescence units of the control group with zero percent effect and RFUCPD represents the relative fluorescence units of the corresponding compound group, and RFUHPE represents the relative fluorescence units of the control group with hundred percent effect. • 6) Cell viability detection: adding MTT solution to each well, incubating in a 37° C., 5% CO2 incubator for 4 hr, followed by addition of MTT dissolving solution, reading optical density (OD) of each well at 570 nm by the Multi label Plate readers after 6 hr, calculating the cytotoxicity of the compounds using the obtained data according to the following formula: Viability %=ODCPD/ODZPE×100 • wherein ODZPE represents the optical density of the control group with zero percent effect, and ODCPD represents the optical density of the corresponding compound; • 7) Data processing: processing the Inhibition %, Viability % by GraphPad Prism Software respectively, and obtaining the half maximal effective concentration (EC50) values and half maximal cytotoxic concentration (CC50) values of the compounds against the HVCcc GT2a viruses.

[3] = tested on: Huh 7.5.1 cells; test: Cell viability detection (MTT) in the HCVcc system; conditions: in vitro HCVcc system
Description: as §1, §2

[4] = Cell viability detection (MTT) in the HCVcc system; conditions: human, Huh 7.5.1 cells infected with J399EM virus (HCVcc); Huh 7.5.1 cells, MTT, 72 hr
Description: as §1, §2

| SMILES | pEC50 [1] | half maximal effective concentration (EC50) against the HCVcc GT2a viruses, in words [2] | half maximal cytotoxic concentration (CC50), in words [3] | pEC50 ([2]; Hepatitis C virus, Huh-7.5.1, 72 h) | CC50 at 72 h [4] |
| --- | --- | --- | --- | --- | --- |
| CC(C)OC(=O)[C@H](C)NP(=O)(OC[C@H]1O[C@@H](n2ccc(=O)[nH]c2=O)[C@](C)(F)[C@@H]1O)Oc1ccc(-c2ccc(F)cc2)cc1 (stereo partly shown) [Example 5] | 7.21 | low | high |  |  |
| CC(C)OC(=O)[C@H](C)NP(=O)(OC[C@H]1O[C@@H](n2ccc(=O)[nH]c2=O)[C@](C)(F)[C@@H]1O)Oc1ccc(-c2ccccc2)c(F)c1 (stereo partly drawn) [Example 28, (2S)-2-(((2-fluoro-[1,1′-biphenyl]-4-yloxy)(((2R,3R,4R,5R)-5-(2,4-dioxo-3,4-dihydropyrimidin-1(2H)-yl)-4-fluoro-3-hydroxy-4-methyltetrahydrofuran-2-yl)methoxy)phosphoryl)amino)propanoic Acid Isopropyl Ester] | 6.91 | low | high |  |  |
| CC(C)OC(=O)[C@H](C)NP(=O)(OC[C@H]1O[C@@H](n2ccc(=O)[nH]c2=O)[C@](C)(F)[C@@H]1O)Oc1ccc(-c2csnn2)cc1 (stereo partly shown) [Example 12] | 6.20 | low | high |  |  |
| CC(C)OC(=O)[C@H](C)NP(=O)(OC[C@H]1O[C@@H](n2ccc(=O)[nH]c2=O)[C@](C)(F)[C@@H]1O)Oc1ccc(-c2ccc(C#N)cc2)cc1 (stereo partly shown) [Example 18] | 6.50 | low | high |  |  |
| CC(C)OC(=O)[C@H](C)NP(=O)(OC[C@H]1O[C@@H](n2ccc(=O)[nH]c2=O)[C@](C)(F)[C@@H]1O)Oc1cccc(-c2ccccc2)c1 (stereo partly drawn) [Example 2, (2S)-2-((([1,1′-biphenyl]-3-yloxy)(((2R,3R,4R,5R)-5-(2,4-dioxo-3,4-dihydropyrimidin-1(2H)-yl)-4-fluoro-3-hydroxy-4-methyltetrahydrofuran-2-yl)methoxy)phosphoryl)amino)propanoic Acid Isopropyl Ester] | 6.98 | low | high |  |  |
| CC(C)OC(=O)[C@H](C)NP(=O)(OC[C@H]1O[C@@H](n2ccc(=O)[nH]c2=O)[C@](C)(F)[C@@H]1O)Oc1ccc(-c2nccs2)cc1 (stereo partly shown) [Example 16] | 5.41 | low | high |  |  |
| COC(=O)Cc1coc2c(OP(=O)(N[C@@H](C)C(=O)OC(C)C)OC[C@H]3O[C@@H](n4ccc(=O)[nH]c4=O)[C@](C)(F)[C@@H]3O)cccc12 (stereo partly drawn) [Example 22, (2S)-2-(((3-methoxycarbonylmethyl-benzofuran-7-yloxy)(((2R,3R,4R,5R)-5-(2,4-dioxo-3,4-dihydropyrimidin-1(2H)-yl)-4-fluoro-3-hydroxy-4-methyltetrahydrofuran-2-yl)methoxy)phosphoryl)amino)propanoic Acid Isopropyl Ester] | 6.50 |  |  |  |  |
| CC(C)OC(=O)[C@H](C)NP(=O)(OC[C@H]1O[C@@H](n2ccc(=O)[nH]c2=O)[C@](C)(F)[C@@H]1O)Oc1ccc(/C=C/c2ccc(F)cc2)cc1 (stereo partly drawn) [Example 19, (2S)-2-(((4-((E)-4-fluorophenylethenylphenyl)-1-yloxy)(((2R,3R,4R,5R)-5-(2,4-dioxo-3,4-dihydropyrimidin-1(2H)-yl)-4-fluoro-3-hydroxy-4-methyltetrahydrofuran-2-yl)methoxy)phosphoryl)amino)propanoic Acid Isopropyl Ester] | 6.52 |  |  |  |  |
| Cc1cc2c(F)c(OP(=O)(N[C@@H](C)C(=O)OC(C)C)OC[C@H]3O[C@@H](n4ccc(=O)[nH]c4=O)[C@](C)(F)[C@@H]3O)ccc2[nH]1 (stereo partly drawn) [Example 21, (2S)-2-(((4-fluoro-2-methyl-1H-indol-5-yloxy)(((2R,3R,4R,5R)-5-(2,4-dioxo-3,4-dihydropyrimidin-1(2H)-yl)-4-fluoro-3-hydroxy-4-methyltetrahydrofuran-2-yl)methoxy)phosphoryl)amino)propanoic Acid Isopropyl Ester] | 6.59 |  |  |  |  |
| CC(C)OC(=O)[C@H](C)NP(=O)(OC[C@H]1O[C@@H](n2ccc(=O)[nH]c2=O)[C@](C)(F)[C@@H]1O)Oc1ccc(-c2cncs2)cc1 (stereo partly shown) [Example 17] | 6.59 |  |  |  |  |
| CC(C)OC(=O)[C@H](C)NP(=O)(OC[C@H]1O[C@@H](n2ccc(=O)[nH]c2=O)[C@](C)(F)[C@@H]1O)Oc1ccc(-c2cscn2)cc1 (stereo partly drawn) [Example 38, (2S)-2-(((4-(thiazol-4-yl)phenyloxy)(((2R,3R,4R,5R)-5-(2,4-dioxo-3,4-dihydropyrimidin-1(2H)-yl)-4-fluoro-3-hydroxy-4-methyltetrahydrofuran-2-yl)methoxy)phosphoryl)amino)propanoic Acid Isopropyl Ester] | 7.00 | low | high |  |  |
| CC(C)OC(=O)[C@H](C)NP(=O)(OC[C@H]1O[C@@H](n2ccc(=O)[nH]c2=O)[C@](C)(F)[C@@H]1O)Oc1ccccc1 (stereo partly drawn) [Positive control, (S)-2-{[(2R,3R,4R,5R)-5-(2,4-dioxo-3,4-dihydro-2H-pyrimidin-1-yl)-4-fluoro-3-hydroxy-4-methyl-tetrahydro-furan-2-ylmethoxy]-phenoxy-phosphorylamino}-propanoic acid isopropyl ester, reference compound] | 6.93 |  |  | 6.76 | > 10000 nM |
